According to ChEMBL document CHEMBL4396913, “Synthesis and biological evaluation of hybrid quinolone-based quaternary ammonium antibacterial agents” (Eur J Med Chem, 2019):
Converted amounts (≈) assume the structure as drawn.

Tests used:
[1] = tested on: Staphylococcus epidermidis; assay: Bactericidal activity against methicillin resistant Staphylococcus epidermidis ATCC 13199 cultured in MH medium assessed as reduction in bacterial survival incubated for 48 hrs by microbroth dilution method; format: functional; conditions: ATCC 13199, 48 h
[2] = Lipophilicity, log k of the compound at 100 ug/ml by micellar electrokinetic chromatography; format: physicochemical
HEK293 [3] = assay: Cytotoxicity against human HEK293 cells assessed as changes in cell morphology upto 20 uM incubated for 72 hrs by MTT assay; format: cell-based; conditions: hek293, 72 h
Staphylococcus aureus [4] = assay: Bactericidal activity against methicillin resistant Staphylococcus aureus N315 cultured in MH medium assessed as reduction in bacterial survival incubated for 48 hrs by microbroth dilution method; format: functional; conditions: N315, 48 h
Bacillus spizizenii [5] = assay: Antibacterial activity against Bacillus subtilis ATCC 6633 cultured in MH medium assessed as reduction in bacterial growth incubated for 48 hrs by microbroth dilution method; format: functional; conditions: ATCC 6633, 48 h
Serratia marcescens [6] = assay: Bactericidal activity against Serratia marcescens ATCC 12795 cultured in MH medium assessed as reduction in bacterial survival incubated for 48 hrs by microbroth dilution method; format: functional; conditions: ATCC 12795, 48 h
[7] = tested on: Staphylococcus epidermidis; assay: Antibacterial activity against Staphylococcus epidermidis ATCC 14990 cultured in MH medium assessed as reduction in bacterial growth incubated for 48 hrs by microbroth dilution method; format: functional; conditions: ATCC 14990, 48 h
Proteus vulgaris [8] = assay: Antibacterial activity against Proteus vulgaris NCTC 4635 cultured in MH medium assessed as reduction in bacterial growth incubated for 48 hrs by microbroth dilution method; format: functional; conditions: NCTC 4635, 48 h
Escherichia coli [9] = assay: Bactericidal activity against Escherichia coli ATCC 8739 cultured in MH medium assessed as reduction in bacterial survival incubated for 48 hrs by microbroth dilution method; format: functional; conditions: ATCC 8739, 48 h
HEK293 [10] = assay: Cytotoxicity against human HEK293 cells assessed as cell viability upto 20 uM incubated for 72 hrs by MTT assay; format: cell-based; conditions: hek293, 72 h
Escherichia coli [11] = assay: Antibacterial activity against Escherichia coli ATCC 8739 cultured in MH medium assessed as reduction in bacterial growth incubated for 48 hrs by microbroth dilution method; format: functional; conditions: ATCC 8739, 48 h
[12] = tested on: Staphylococcus epidermidis; assay: Antibacterial activity against methicillin resistant Staphylococcus epidermidis ATCC 13199 cultured in MH medium assessed as reduction in bacterial growth incubated for 48 hrs by microbroth dilution method; format: functional; conditions: ATCC 13199, 48 h
[13] = tested on: Staphylococcus epidermidis; assay: Bactericidal activity against Staphylococcus epidermidis ATCC 14990 cultured in MH medium assessed as reduction in bacterial survival incubated for 48 hrs by microbroth dilution method; format: functional; conditions: ATCC 14990, 48 h
Streptococcus pneumoniae [14] = assay: Antibacterial activity against Streptococcus pneumoniae cultured in MH medium assessed as reduction in bacterial growth incubated for 48 hrs by microbroth dilution method; format: functional
Pseudomonas aeruginosa [15] = assay: Antibacterial activity against Pseudomonas aeruginosa ATCC 9027 cultured in MH medium assessed as reduction in bacterial growth incubated for 48 hrs by microbroth dilution method; format: functional; conditions: ATCC 9027, 48 h
Escherichia coli [16] = assay: Bactericidal activity against […] Escherichia coli ATCC 8739 assessed as reduction in bacterial survival incubated for 48 hrs in presence of 50 ug/ml […], PAbetaN by microbroth dilution method; format: functional; conditions: ATCC 8739, 48 h
Proteus vulgaris [17] = assay: Bactericidal activity against Proteus vulgaris NCTC 4635 cultured in MH medium assessed as reduction in bacterial survival incubated for 48 hrs by microbroth dilution method; format: functional; conditions: NCTC 4635, 48 h
Escherichia coli [18] = assay: Antibacterial activity against […] Escherichia coli ATCC 8739 assessed as reduction in bacterial growth incubated for 48 hrs in presence of 50 ug/ml […], PAbetaN by microbroth dilution method; format: functional; conditions: ATCC 8739, 48 h
Bacillus spizizenii [19] = assay: Bactericidal activity against Bacillus subtilis ATCC 6633 cultured in MH medium assessed as reduction in bacterial survival incubated for 48 hrs by microbroth dilution method; format: functional; conditions: ATCC 6633, 48 h
Serratia marcescens [20] = assay: Antibacterial activity against Serratia marcescens ATCC 12795 cultured in MH medium assessed as reduction in bacterial growth incubated for 48 hrs by microbroth dilution method; format: functional; conditions: ATCC 12795, 48 h
Pseudomonas aeruginosa [21] = assay: Bactericidal activity against Pseudomonas aeruginosa ATCC 9027 cultured in MH medium assessed as reduction in bacterial survival incubated for 48 hrs by microbroth dilution method; format: functional; conditions: ATCC 9027, 48 h
Staphylococcus aureus [22] = assay: Antibacterial activity against methicillin resistant Staphylococcus aureus 6347 cultured in MH medium assessed as reduction in bacterial growth incubated for 48 hrs by microbroth dilution method; format: functional; conditions: Staphylococcus aureus, 6347, 48 h
Staphylococcus aureus [23] = assay: Bactericidal activity against Staphylococcus aureus ATCC 6538 cultured in MH medium assessed as reduction in bacterial survival incubated for 48 hrs by microbroth dilution method; format: functional; conditions: ATCC 6538, 48 h
Staphylococcus aureus [24] = assay: Antibacterial activity against Staphylococcus aureus ATCC 6538 cultured in MH medium assessed as reduction in bacterial growth incubated for 48 hrs by microbroth dilution method; format: functional; conditions: ATCC 6538, 48 h
Staphylococcus aureus [25] = assay: Bactericidal activity against methicillin resistant Staphylococcus aureus 6347 cultured in MH medium assessed as reduction in bacterial survival incubated for 48 hrs by microbroth dilution method; format: functional; conditions: Staphylococcus aureus, 6347, 48 h
Enterococcus hirae [26] = assay: Antibacterial activity against Enterococcus hirae ATCC 1052 cultured in BHI medium assessed as reduction in bacterial growth incubated for 48 hrs by microbroth dilution method; format: functional; conditions: ATCC 1052, 48 h
Staphylococcus aureus [27] = assay: Antibacterial activity against methicillin resistant Staphylococcus aureus N315 cultured in MH medium assessed as reduction in bacterial growth incubated for 48 hrs by microbroth dilution method; format: functional; conditions: N315, 48 h
Enterococcus hirae [28] = assay: Bactericidal activity against Enterococcus hirae ATCC 1052 cultured in BHI medium assessed as reduction in bacterial survival incubated for 48 hrs by microbroth dilution method; format: functional; conditions: ATCC 1052, 48 h
Streptococcus pneumoniae [29] = assay: Bactericidal activity against Streptococcus pneumoniae cultured in MH medium assessed as reduction in bacterial survival incubated for 48 hrs by microbroth dilution method; format: functional

| Compound | MBC [1] | log K [2] | MBC (Staphylococcus aureus [4]) | MIC (Bacillus spizizenii [5]) | MBC (Serratia marcescens [6]) | MIC [7] | MIC (Proteus vulgaris [8]) | MBC (Escherichia coli [9]) | MIC (Escherichia coli [11]) | MIC [12] | MBC [13] | MIC (Streptococcus pneumoniae [14]) | MIC (Pseudomonas aeruginosa [15]) | MBC (Proteus vulgaris [17]) | MBC (Bacillus spizizenii [19]) | MIC (Serratia marcescens [20]) | MIC (Staphylococcus aureus [22]) | MIC (Staphylococcus aureus [24]) | MIC (Enterococcus hirae [26]) | MIC (Staphylococcus aureus [27]) | also measured |
| --- | --- | --- | --- | --- | --- | --- | --- | --- | --- | --- | --- | --- | --- | --- | --- | --- | --- | --- | --- | --- | --- |
| CCn1cc(C(=O)O)c(=O)c2cc(F)c(N3CC[N+]4(CN5C(C)=CC(C)=C(C(=O)O)C5=N4)C(C)C3)c(F)c21.[Cl-] (stereo unspecified) | 32 µg/mL | -0.4791 | 128 µg/mL | 8 µg/mL | 64 µg/mL | 32 µg/mL | 1 µg/mL | 8 µg/mL | 4 µg/mL | 16 µg/mL | 64 µg/mL | > 512 µg/mL | 128 µg/mL | 1 µg/mL | 8 µg/mL | 64 µg/mL | 128 µg/mL | 64 µg/mL | > 512 µg/mL | 128 µg/mL | Activity (HEK293 [3]): Non-Toxic; Activity (HEK293 [10]): Non-Toxic; MBC (Escherichia coli [16]): 4 µg/mL; MIC (Escherichia coli [18]): 2 µg/mL; MBC (Pseudomonas aeruginosa [21]): > 512 µg/mL; MBC (Staphylococcus aureus [23]): 64 µg/mL; MBC (Staphylococcus aureus [25]): 128 µg/mL |
| C[C@@H]1CN(c2c(F)c(N)c3c(=O)c(C(=O)O)cn(C4CC4)c3c2F)C[C@H](C)N1 [SPARFLOXACIN] | 0.032 µg/mL (≈ 0.0815 µM) | 0.1161 | 0.125 µg/mL (≈ 0.319 µM) | 0.063 µg/mL (≈ 0.161 µM) | 1 µg/mL (≈ 2.55 µM) | 0.125 µg/mL (≈ 0.319 µM) | 0.004 µg/mL (≈ 0.0102 µM) | 0.032 µg/mL (≈ 0.0815 µM) | 0.016 µg/mL (≈ 0.0408 µM) | 0.032 µg/mL (≈ 0.0815 µM) | 0.125 µg/mL (≈ 0.319 µM) | 0.25 µg/mL (≈ 0.637 µM) | 0.125 µg/mL (≈ 0.319 µM) | 0.008 µg/mL (≈ 0.0204 µM) | 0.063 µg/mL (≈ 0.161 µM) | 0.5 µg/mL (≈ 1.27 µM) | 0.063 µg/mL (≈ 0.161 µM) | 0.125 µg/mL (≈ 0.319 µM) | 32 µg/mL (≈ 81.5 µM) | 0.125 µg/mL (≈ 0.319 µM) | MBC (Enterococcus hirae [28]): 32 µg/mL (≈ 81.5 µM); MBC (Streptococcus pneumoniae [29]): 128 µg/mL (≈ 326 µM); MBC (Pseudomonas aeruginosa [21]): 0.125 µg/mL (≈ 0.319 µM); MBC (Staphylococcus aureus [23]): 0.25 µg/mL (≈ 0.637 µM); MBC (Staphylococcus aureus [25]): 0.063 µg/mL (≈ 0.161 µM) |
| CCn1cc(C(=O)O)c(=O)c2cc(F)c(N3CC[N+]4(CC3)CN3C(=N4)C(C(=O)O)=Cc4ccccc43)cc21.[Cl-] | 64 µg/mL | -0.1044 | 64 µg/mL | 16 µg/mL | 32 µg/mL | 32 µg/mL | 2 µg/mL | 4 µg/mL | 4 µg/mL | 64 µg/mL | 32 µg/mL | > 512 µg/mL | 64 µg/mL | 2 µg/mL | 16 µg/mL | 32 µg/mL | 32 µg/mL | 64 µg/mL | > 512 µg/mL | 64 µg/mL | Activity (HEK293 [3]): Non-Toxic; Activity (HEK293 [10]): Non-Toxic; MBC (Pseudomonas aeruginosa [21]): 64 µg/mL; MBC (Staphylococcus aureus [23]): 64 µg/mL; MBC (Staphylococcus aureus [25]): 32 µg/mL |
| CCn1cc(C(=O)O)c(=O)c2cnc(N3CCNCC3)nc21 [PIPEMIDIC ACID] | 64 µg/mL (≈ 211 µM) | -0.1697 | 32 µg/mL (≈ 105 µM) | 2 µg/mL (≈ 6.59 µM) | 2 µg/mL (≈ 6.59 µM) | 32 µg/mL (≈ 105 µM) | 0.004 µg/mL (≈ 0.0132 µM) | 2 µg/mL (≈ 6.59 µM) | 2 µg/mL (≈ 6.59 µM) | 32 µg/mL (≈ 105 µM) | 32 µg/mL (≈ 105 µM) | > 512 µg/mL | 8 µg/mL (≈ 26.4 µM) | 0.004 µg/mL (≈ 0.0132 µM) | 2 µg/mL (≈ 6.59 µM) | 2 µg/mL (≈ 6.59 µM) | 32 µg/mL (≈ 105 µM) | 64 µg/mL (≈ 211 µM) | > 512 µg/mL | 32 µg/mL (≈ 105 µM) | MBC (Pseudomonas aeruginosa [21]): 8 µg/mL (≈ 26.4 µM); MBC (Staphylococcus aureus [23]): 128 µg/mL (≈ 422 µM); MBC (Staphylococcus aureus [25]): 32 µg/mL (≈ 105 µM) |
| CCn1cc(C(=O)O)c(=O)c2cnc(N3CC[N+]4(CC3)CN3C(C)=CC(C)=C(C(=O)O)C3=N4)nc21.[Cl-] |  | -0.5725 |  | > 512 µg/mL |  | > 512 µg/mL | 256 µg/mL |  | > 512 µg/mL | > 512 µg/mL |  | > 512 µg/mL | > 512 µg/mL | > 512 µg/mL |  | > 512 µg/mL | > 512 µg/mL | > 512 µg/mL | > 512 µg/mL | > 512 µg/mL | Activity (HEK293 [3]): Non-Toxic; Activity (HEK293 [10]): Non-Toxic |
